According to paper PMC10385162 (Viruses, 2023):
Where “and” joins values, the source holds several entries; their conditions need not be identical. Identical values can stand only once. Like-named read-outs stand apart in the source and are kept apart here.

Assays:
[1] = target: HIV-1 reverse transcriptase (RT)-associated RNase H (Human immunodeficiency virus type 1 group M subtype B, UniProt P03366); experiment: HIV-1 RT-associated RNase H inhibition assay; assay type: biochemical; conditions: for IC50 / IC50 HIV-1 RNase H: concentration required to reduce HIV-1 RT-associated RNase H activity by 50%, mean of three independent experiments ± SD; for Percentage of residual enzymatic activity at the highest concentration tested: HIV-1 RNase H
[2] = target: SARS-CoV-2 nsp14/nsp10 ExoN (Severe acute respiratory syndrome coronavirus 2, UniProt P0DTD1); experiment: SARS-CoV-2 nsp14 exonuclease (ExoN) activity assay, HPLC, RNA22 substrate; assay type: biochemical; conditions: for inhibition at 100 µM: read-out: Inhibition of ExoN activity
SARS-CoV-2 WA1/2020 = experiment: Plaque reduction assay in Vero E6 ACE2 cells; assay type: cell-based; conditions: for EC50 fold higher compared to 1c: plaque reduction assay
[3] = test system: SARS-CoV-2 WA1/2020 strain; assay type: cell-based
[4] = target: full-length SARS-CoV-2 nsp14 MTase (Severe acute respiratory syndrome coronavirus 2, UniProt P0DTD1); experiment: SARS-CoV-2 nsp14 N7-methyltransferase activity assay; assay type: biochemical; conditions: absence vs presence of inhibitor; GpppA substrate, [3H]-SAM

O=C(N/N=C/c1ccc(O)c([N+](=O)[O-])c1)c1cc2ccccc2cc1O [1a, (E)-N’-(4-Hydroxy-3-nitrobenzylidene)-3-hydroxy-2-naphthohydrazide]
IC50 ([1]; read-out: IC50 HIV-1 RNase H): 69.6 ± 8.46 µM

COc1cc(/C=N/NC(=O)c2cc3ccccc3cc2O)cc([N+](=O)[O-])c1O [1b, (E)-N′-(4-Hydroxy-5-methoxy-3-nitrobenzylidene)-3-hydroxy-2-naphthohydrazide]
IC50 ([1]; read-out: IC50 HIV-1 RNase H): 7 to 8 µM and 7.16 µM

O=C(N/N=C/c1cc(O)c(O)c([N+](=O)[O-])c1)c1cc2ccccc2cc1O [1c, (E)-N′-(3,4-Dihydroxy-5-nitrobenzylidene)-3-hydroxy-2-naphthohydrazide]
IC50 ([2]; RNA22 substrate, HPLC): 2.2 µM | Inhibition of ExoN activity ([2]; at 100 µM): complete inhibition | IC50 ([1]; IC50 HIV-1 RNase H): 0.57 ± 0.04 µM | EC50 (SARS-CoV-2 WA1/2020; concentration required to reduce plaque number by 50%, 3 d, mean and SD of three independent experiments, read-out: EC50 anti-SARS-CoV-2 activity by plaque reduction assay): 10.23 ± 0.01 µM | Effect on virus titers ([3]; 12.5 µM, A549 ACE2+ cells, MOI 0.05): no measurable effect | Reduction in virus titers ([3]; 25 µM, 24 h post-infection): 6.4 fold | Reduction in virus titers ([3]; 25 µM, 48 h post-infection): 7.8 fold | Reduction in virus titers ([3]; 50 µM, 24 h post-infection): 78.5 fold | Reduction in virus titers ([3]; 50 µM, 48 h post-infection): 48.9 fold | Effect on nsp14 MTase activity (tritium incorporation) [4]: no significant differences

O=C(N/N=C/c1cc(O)ccc1O)c1cc2ccccc2cc1O [1d]
IC50 ([1]; read-out: IC50 HIV-1 RNase H): 35.9 ± 8.6 µM

COc1ccc(/C=N/NC(=O)c2cc3ccccc3cc2O)c(O)c1O [1e, (E)-N’-(2,3-Dihydroxy-4-methoxybenzylidene)-3-hydroxy-2-naphthohydrazide]
IC50 ([1]; read-out: IC50 HIV-1 RNase H): 1.02 ± 0.15 µM

O=C(N/N=C/c1ccc(O)c(O)c1O)c1cc2ccccc2cc1O [1f]
IC50 ([1]; read-out: IC50 HIV-1 RNase H): 0.93 ± 0.24 µM

COc1ccc(/C=N/NC(=O)c2cc3ccccc3cc2O)cc1O [1g]
Percentage of residual enzymatic activity at the highest concentration tested [1]: 84% | IC50 ([1]; read-out: IC50 HIV-1 RNase H): > 100 µM

O=C(N/N=C/c1ccc(O)cc1O)c1cc2ccccc2cc1O [1h]
IC50 ([1]; read-out: IC50 HIV-1 RNase H): 36.4 ± 10.5 µM

CN(C)c1ccc(/C=N/NC(=O)c2cc3ccccc3cc2O)cc1 [1i]
IC50 ([1]; read-out: IC50 HIV-1 RNase H): 27.5 ± 2.65 µM

CC(=O)Nc1ccc(/C=N/NC(=O)c2cc3ccccc3cc2O)cc1 [1j]
Percentage of residual enzymatic activity at the highest concentration tested [1]: 91% | IC50 HIV-1 RNase H [1]: inactive | IC50 ([1]; read-out: IC50 HIV-1 RNase H): > 100 µM

CCN(CC)c1ccc(/C=N/NC(=O)c2cc3ccccc3cc2O)cc1 [1k]
IC50 ([1]; read-out: IC50 HIV-1 RNase H): 7 to 8 µM and 7.94 µM

CN1CCN(c2ccc(/C=N/NC(=O)c3cc4ccccc4cc3O)cc2)CC1 [1l, (E)-N’-[4-(N-Methylpiperazinyl)benzylidene]-3-hydroxy-2-naphthohydrazide]
Percentage of residual enzymatic activity at the highest concentration tested [1]: 70% | IC50 HIV-1 RNase H [1]: inactive | IC50 ([1]; read-out: IC50 HIV-1 RNase H): > 100 µM | melting point: 256 to 257 °C

O=C(N/N=C/c1cc(O)c(O)c([N+](=O)[O-])c1)c1ccccc1O [2a, (E)-N′-(3,4-Dihydroxy-5-nitrobenzylidene)-2-hydroxybenzohydrazide]
inhibition at 100 µM [2]: ~65% | IC50 ([1]; IC50 HIV-1 RNase H): 14 ± 0.97 µM | melting point: 275 °C (dec.) | EC50 fold higher compared to 1c (SARS-CoV-2 WA1/2020): 4.3 fold

O=C(N/N=C/c1cc(O)c(O)c([N+](=O)[O-])c1)c1cccc(F)c1 [2b, (E)-N′-(3,4-Dihydroxy-5-nitrobenzylidene)-3-fluorobenzohydrazide]
inhibition at 100 µM [2]: ~53% | IC50 ([1]; IC50 HIV-1 RNase H): 15.2 ± 1.35 µM | melting point: 251 to 252 °C (dec.) | EC50 fold higher compared to 1c (SARS-CoV-2 WA1/2020): 3.4 fold

O=C(N/N=C/c1cc(O)c(O)c([N+](=O)[O-])c1)c1cccnc1 [2c, (E)-N′-(3,4-Dihydroxy-5-nitrobenzylidene)-nicotinoylhydrazide]
inhibition at 100 µM [2]: ~37% | IC50 ([1]; IC50 HIV-1 RNase H): 24.7 ± 3.89 µM | melting point: 250 to 251 °C (dec.) | EC50 anti-SARS-CoV-2 activity by plaque reduction assay (SARS-CoV-2 WA1/2020; concentration required to reduce plaque number by 50%, 3 d, mean and SD of three independent experiments): inactive

O=C(N/N=C/c1ccc(O)c(O)c1)c1cc2ccccc2cc1O [Dynasore, (E)-N′-(3,4-dihydroxybenzylidene)-3-hydroxy-2-naphthohydrazide, reference compound]
IC50 ([1]; read-out: IC50 HIV-1 RNase H): 3.1 ± 0.52 µM

CCOC(=O)C(=O)CC(=O)/C=C/c1cccn1Cc1ccc(F)cc1 [RDS1643, reference compound]
IC50 ([1]; read-out: IC50 HIV-1 RNase H): 10.8 ± 5.2 µM
